Assay results: patent US12023390B2, “Isomerically pure 18F-labelled tetrahydrofolates” (MERCK PATENT GMBH, priority 2017, dated 2024)
Values joined by “and” are separate entries in the source; they are usually repeats but may differ in a detail not shown here. Equal values may be shown once.

Tests used:
KB tumor-bearing mice = assay: Biodistribution studies in KB tumor-bearing mice
Protocol: Biodistribution studies were performed 2 weeks after cell inoculation. The ^18F-folate radiotracers (˜5 MBq/mouse) were injected in a volume of 100 μL into a lateral tail vein. The animals were sacrificed at 30 min, 60 min and 90 min after administration of radiotracers. Selected tissues and organs were collected, weighed, and radioactivity was measured using a γ-counter. The results were listed as a percentage of the injected radioactivity per gram of tissue mass (% IA/g), using counts of a defined volume of the original injection solution measured at the same time resulting in decay corrected values.

D4 (FR-β) = molecular target: T1, D4 (FR-β) (Homo sapiens, UniProt P14207); assay: Cell uptake and internalization in FR-β transfected CHO cells (D4); assay type: cell-based
T1 construct: expressed in transfected cells; host or cells: CHO cells (D4)
Protocol: (§1) The uptake and internalization of the oxidized (^18F-AzaFol) and reduced ^18F-folates (6S-isomer and 6R-isomer of ^18F-5-Me-Aza-THF) in D4 and RT16 cells which express the FR-α and FR-β, […] was studied. Both cell lines were kindly provided by Larry Matherly Wayne State University, Detroit, U.S.; Golani et al., J Med Chem, 2016, 59, 7856.
When using D4 cells that express the FR-β, the uptake of ^18F-AzaFol and the 6S-isomer of the reduced radiotracer reached approximately 70% after 1 h incubation and 80% after 3 h incubation. The internalized fraction of ^18F-AzaFol and the 6S-isomer of the reduced version was 20% and 12%, respectively, after 1 h incubation. These numbers increased slightly when the incubation time was extended to 3 h. […] No change was observed after additional two hours of incubation.

FR-positive KB cells = assay: Cell uptake and internalization using FR-positive KB cells; assay type: cell-based
Protocol: (§2) In order to investigate FR-specific cell uptake and internalization, cell uptake and internalization of 6R-[^18F]1 and 6S-[^18F]1 were carried out using FR-positive KB cells. Cell uptake increased constantly over time for both diastereoisomers resulting in an uptake of about 60% (calculated per 0.3 mg of protein) of total added radioactivity after 3 h of incubation at 37° C. (FIG. 22).

[1] = Metabolite studies / in vivo stability (radio-UPLC of blood plasma, liver, urine); design: species or system mice; details: samples taken p.i.
Protocol: as §2
The folate radiotracer 6S/6R-[^18F]5 (1:1 ratio, 53.7-52.3 MBq; 0.62-1.15 nmol) were intravenously injected into mice in order to determine the in vivo stability of the tracers. […] Ice-cold methanol containing 10 mg/mL 2-mercaptoethanol and 0.025% (v/v) ammonium hydroxide was added to the blood plasma, homogenized liver and urine in order to precipitate the proteins.^6 After centrifugation, the supernatants of the blood plasma, liver and urine samples were analyzed by radio-UPLC (FIG. 4).

RT16 (FR-α) = molecular target: T2, RT16 (FR-α) (Homo sapiens, UniProt P15328); assay: Cell uptake and internalization in FR-α transfected CHO cells (RT16); assay type: cell-based
T2 construct: expressed in transfected cells; host or cells: CHO cells (RT16)
Protocol: as §1
The internalized fraction of the radiotracers reached 8-10% after 1 h and increased slightly up to 9-12% after 3 h incubation.

[2] = Distribution coefficient (log D7.4), shake flask method; assay type: physicochemical; details: n-octanol / phosphate buffer pH 7.4, room temperature
Protocol: The samples were shaken for 15 min in an overhead shaker and centrifuged for 3 min at 5000 rpm to separate the two phases. Aliquots (50 μL) of both phases were added to Eppendorftubes and then, analyzed in a γ-counter (Wizard, PerkinElmer). The partition coefficient is expressed as the radio between the radioactivity concentrations (cpm/mL) of the n-octanol and the phosphate buffer phase. Values represent the mean±standard deviation of sextuples from two independent experiments.

FR-alpha = FR-alpha (Homo sapiens, UniProt P15328); assay: Selectivity for FR-alpha versus oxidized folic acid derivative (summary statement)
Folate Receptor = Folate Receptor (Homo sapiens, UniProt P15328); details: cited from earlier work
[3] = KB tumor-bearing mice, 30 min p.i.
[4] = KB tumor-bearing mice, 30 min p.i., ratio
[5] = KB tumor-bearing mice, 60 min p.i.
[6] = KB tumor-bearing mice, 60 min p.i. & Folic Acid (100 μg 10 min prior)
[7] = KB tumor-bearing mice, 60 min p.i., ratio
[8] = KB tumor-bearing mice, 90 min p.i.
[9] = KB tumor-bearing mice, 90 min p.i., ratio
[10] = KB tumor-bearing mice, 90 min p.i., listed as 6S-form
[11] = KB tumor-bearing mice, 90 min p.i., listed as 6S-isomer

T1 sequence (P14207 17-230): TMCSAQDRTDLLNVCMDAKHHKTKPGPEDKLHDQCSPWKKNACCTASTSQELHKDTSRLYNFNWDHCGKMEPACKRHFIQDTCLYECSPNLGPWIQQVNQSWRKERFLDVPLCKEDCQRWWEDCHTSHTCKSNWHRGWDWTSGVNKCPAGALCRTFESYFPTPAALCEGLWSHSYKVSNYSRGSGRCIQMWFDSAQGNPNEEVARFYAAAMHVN
Sequence of Folate Receptor (P15328 25-234): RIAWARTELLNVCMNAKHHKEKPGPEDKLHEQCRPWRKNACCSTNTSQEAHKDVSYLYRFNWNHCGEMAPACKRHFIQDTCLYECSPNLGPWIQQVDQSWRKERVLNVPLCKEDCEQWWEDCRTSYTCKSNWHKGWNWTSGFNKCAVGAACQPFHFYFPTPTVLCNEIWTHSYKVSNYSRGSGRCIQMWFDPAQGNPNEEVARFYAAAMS
Sequence of FR-alpha (P15328 25-234, species assumed): as the sequence (P15328 25-234) above
T2 sequence (P15328 25-234): as above

Molecule: 6S-3′-aza-2′-[^18F]fluoro-5-MTHF [6S-[^18F]1]
- Biodistribution: Blood (KB tumor-bearing mice; [3]): 1.52 ± 0.31 % IA/g
- Biodistribution: Bone (KB tumor-bearing mice; [3]): 1.70 ± 0.13 % IA/g
- Biodistribution: Feaces (KB tumor-bearing mice; [3]): 3.71 ± 2.34 % IA/g
- Biodistribution: Gall Bladder (KB tumor-bearing mice; [3]): 20.0 ± 9.00 % IA/g
- Biodistribution: Heart (KB tumor-bearing mice; [3]): 2.02 ± 0.22 % IA/g
- Biodistribution: Intestines (KB tumor-bearing mice; [3]): 2.61 ± 0.65 % IA/g
- Biodistribution: KB Tumor (KB tumor-bearing mice; [3]): 11.13±0.90 % IA/g and 11.1 ± 0.90 % IA/g
- Biodistribution: Kidneys (KB tumor-bearing mice; [3]): 42.5 ± 2.73 % IA/g
- Biodistribution: Liver (KB tumor-bearing mice; [3]): 8.10 ± 1.16 % IA/g
- Biodistribution: Lung (KB tumor-bearing mice; [3]): 2.31 ± 0.42 % IA/g
- Biodistribution: Muscle (KB tumor-bearing mice; [3]): 1.36 ± 0.25 % IA/g
- Biodistribution: Salivary glands (KB tumor-bearing mice; [3]): 13.8 ± 2.06 % IA/g
- Biodistribution: Spleen (KB tumor-bearing mice; [3]): 1.90 ± 0.34 % IA/g
- Biodistribution: Stomach (KB tumor-bearing mice; [3]): 2.54 ± 0.56 % IA/g
- Tu-to-blood (KB tumor-bearing mice; [4]): 7.41 ± 0.96
- Tu-to-liver (KB tumor-bearing mice; [4]): 1.38 ± 0.16
- Biodistribution: Kidneys (KB tumor-bearing mice; KB tumor-bearing mice, 30 min p.i., listed as 6S-form): 42.5±2.73 % IA/g
- Biodistribution: Liver (KB tumor-bearing mice; KB tumor-bearing mice, 30 min p.i., listed as 6S-tracer): 8.10±1.16 % IA/g
- Biodistribution: Blood (KB tumor-bearing mice; [5]): 1.26 ± 0.08 % IA/g
- Biodistribution: Bone (KB tumor-bearing mice; [5]): 1.38 ± 0.14 % IA/g
- Biodistribution: Feaces (KB tumor-bearing mice; [5]): 4.85 ± 1.95 % IA/g
- Biodistribution: Gall Bladder (KB tumor-bearing mice; [5]): 16.6 ± 8.91 % IA/g
- Biodistribution: Heart (KB tumor-bearing mice; [5]): 1.53 ± 0.15 % IA/g
- Biodistribution: Intestines (KB tumor-bearing mice; [5]): 2.58 ± 0.42 % IA/g
- Biodistribution: KB Tumor (KB tumor-bearing mice; [5]): 14.2 ± 1.91 % IA/g
- Biodistribution: Kidneys (KB tumor-bearing mice; [5]): 37.5 ± 3.61 % IA/g
- Biodistribution: Liver (KB tumor-bearing mice; [5]): 6.28 ± 0.66 % IA/g
- Biodistribution: Lung (KB tumor-bearing mice; [5]): 2.04 ± 0.09 % IA/g
- Biodistribution: Muscle (KB tumor-bearing mice; [5]): 1.29 ± 0.14 % IA/g
- Biodistribution: Salivary glands (KB tumor-bearing mice; [5]): 13.8 ± 1.28 % IA/g
- Biodistribution: Spleen (KB tumor-bearing mice; [5]): 1.57 ± 0.16 % IA/g
- Biodistribution: Stomach (KB tumor-bearing mice; [5]): 1.84 ± 0.33 % IA/g
- Biodistribution: Blood (KB tumor-bearing mice; [6]): 1.09 ± 0.28 % IA/g
- Biodistribution: Bone (KB tumor-bearing mice; [6]): 0.49 ± 0.12 % IA/g
- Biodistribution: Feaces (KB tumor-bearing mice; [6]): 8.42 ± 2.10 % IA/g
- Biodistribution: Gall Bladder (KB tumor-bearing mice; [6]): 5.87 ± 0.45 % IA/g
- Biodistribution: Heart (KB tumor-bearing mice; [6]): 0.50 ± 0.13 % IA/g
- Biodistribution: Intestines (KB tumor-bearing mice; [6]): 4.34 ± 0.93 % IA/g
- Biodistribution: KB Tumor (KB tumor-bearing mice; [6]): 2.11 ± 0.38 % IA/g
- Biodistribution: Kidneys (KB tumor-bearing mice; [6]): 2.28 ± 0.95 % IA/g
- Biodistribution: Liver (KB tumor-bearing mice; [6]): 4.76 ± 0.87 % IA/g
- Biodistribution: Lung (KB tumor-bearing mice; [6]): 0.84 ± 0.20 % IA/g
- Biodistribution: Muscle (KB tumor-bearing mice; [6]): 0.26 ± 0.06 % IA/g
- Biodistribution: Salivary glands (KB tumor-bearing mice; [6]): 0.89 ± 0.26 % IA/g
- Biodistribution: Spleen (KB tumor-bearing mice; [6]): 0.90 ± 0.24 % IA/g
- Biodistribution: Stomach (KB tumor-bearing mice; [6]): 0.73 ± 0.32 % IA/g
- Tu-to-blood (KB tumor-bearing mice; [7]): 11.3 ± 1.13
- Tu-to-kidney (KB tumor-bearing mice; [7]): 0.38 ± 0.04
- Tu-to-liver (KB tumor-bearing mice; [7]): 1.87 ± 0.96
- Biodistribution: Blood (KB tumor-bearing mice; [8]): 1.16 ± 0.20 % IA/g
- Biodistribution: Bone (KB tumor-bearing mice; [8]): 1.49 ± 0.30 % IA/g
- Biodistribution: Feaces (KB tumor-bearing mice; [8]): 4.57 ± 1.98 % IA/g
- Biodistribution: Gall Bladder (KB tumor-bearing mice; [8]): 11.4 ± 7.18 % IA/g
- Biodistribution: Heart (KB tumor-bearing mice; [8]): 1.48 ± 0.17 % IA/g
- Biodistribution: Intestines (KB tumor-bearing mice; [8]): 2.34 ± 0.39 % IA/g
- Biodistribution: KB Tumor (KB tumor-bearing mice; [8]): 19.2 ± 4.16 % IA/g
- Biodistribution: Kidneys (KB tumor-bearing mice; [8]): 42.3 ± 7.05 % IA/g
- Biodistribution: Liver (KB tumor-bearing mice; [8]): 5.86 ± 1.11 % IA/g
- Biodistribution: Lung (KB tumor-bearing mice; [8]): 2.08 ± 0.35 % IA/g
- Biodistribution: Muscle (KB tumor-bearing mice; [8]): 1.24 ± 0.14 % IA/g
- Biodistribution: Salivary glands (KB tumor-bearing mice; [8]): 21.4 ± 4.59 % IA/g
- Biodistribution: Spleen (KB tumor-bearing mice; [8]): 1.82 ± 0.49 % IA/g
- Biodistribution: Stomach (KB tumor-bearing mice; [8]): 1.69 ± 0.33 % IA/g
- Tu-to-blood (KB tumor-bearing mice; [9]): 16.5 ± 0.59
- Tu-to-liver (KB tumor-bearing mice; [9]): 3.30 ± 0.59
- Biodistribution: Kidneys (KB tumor-bearing mice; [10]): 42.3±7.05 % IA/g
- Biodistribution: Liver (KB tumor-bearing mice; [10]): 5.86±1.11 % IA/g
- Biodistribution: Salivary glands (KB tumor-bearing mice; [10]): 21.4±4.59 % IA/g
- Biodistribution: KB Tumor (KB tumor-bearing mice; [11]): 19.2±4.16 % IA/g
- Biodistribution: Spleen (KB tumor-bearing mice; [11]): 1.82±0.49 % IA/g
- Biodistribution: Liver (KB tumor-bearing mice; KB tumor-bearing mice, 90 min p.i., listed as S-isomer): 5.86±1.11 % IA/g
- Specificity of tumor binding (KB tumor-bearing mice; blocking by pre-injection of folic acid): 89%
- factor of increase of tumor-to-kidney ratio (KB tumor-bearing mice; from 30 min p.i. to 90 min p.i.): 1.7
- uptake into D4 cells (in words) (D4 (FR-β); D4 (FR-β) cells): significant uptake
- internalized fraction (D4 (FR-β); D4 cells, 1 h incubation): 12%
- uptake (D4 (FR-β); D4 cells, 1 h incubation): approximately 70%
- uptake (D4 (FR-β); D4 cells, 3 h incubation): ~80%
- internalized activity (FR-positive KB cells; 37° C.): ~16%
- cell uptake (% of total added radioactivity) (FR-positive KB cells; 3 h incubation at 37° C., calculated per 0.3 mg of protein): about 60%
- in vivo stability [1]: Only intact parent compounds were found
- uptake into RT16 cells (in words) (RT16 (FR-α)): significant uptake
- PET/CT: KB tumor xenograft uptake (KB tumor xenografts; already 1 h p.i.): High KB tumor xenograft uptake
- PET/CT: blocking studies, uptake in all FR-positive tissues (KB tumor xenografts; folic acid injected 10 minutes prior to radiotracer): remarkably reduced uptake
- logD7.4 [2]: −4.6 ± 0.1

Molecule: CN1c2c(nc(N)[nH]c2=O)NCC1CNc1ccc(C(=O)N[C@@H](CCC(=O)O)C(=O)O)c([18F])n1 (some centres unmarked) [3′-aza-2′-[^18]fluoro-5-methyltetrahydrofolate]
- fold higher selectivity for FR-alpha than the respective oxidized folic acid derivative (FR-alpha): 50 fold

Molecule: Nc1nc2ncc(CNc3ccc(C(=O)N[C@H](CCC(=O)NC[C@H](N)C(=O)N[C@@H](CC(=O)O)C(=O)N[C@@H](CS)C(=O)O)C(=O)O)cc3)nc2c(=O)[nH]1 [EC20]
- Kd (Folate Receptor): 12 nM
